Measurements as given in patent US5436343A, “Alkenecarboxylic acid compounds” (Adir et Compagnie, priority 1992, dated 1995).
Where a name gives a salt, the structure may show the parent alone.

Legend:
[1] = tested on: tracheal pressure in guinea pigs (bronchoconstriction caused by U46619); test: IC50 on tracheal pressure in guinea pigs (U46619-induced bronchoconstriction); assay type: in vivo, guinea pig; details: Cavia porcellus, iv, 5 min; anesthetized guinea pigs; U46619 2 μg/kg i.v.; antagonist injected 5 minutes before U46619; read-out: IC50 (dose of antagonist that inhibits by 50% the increase in tracheal pressure caused by U46619)
Source text: ICso on Tracheal Pressure in Guinea Pigs
Male albino guinea pigs (350-400 g) subjected to an 18-hour water diet are anesthetized with ethyl carbamate (1.25 g/kg i.p.). A catheter is introduced into the carotid artery in order to measure the arterial blood pressure by means of a pressure cell. A second catheter is introduced into the jugular vein and is used to inject the pharmacological substances. The trachea is cannulated and the guinea pig is placed in assisted respiration by means of a respirator. The animal's temperature is maintained at 37° C. using a thermostatic blanket. A needle pushed in the tracheal cannula is connected to a pressure cell and enables the tracheal pressure to be recorded.
The guinea pigs are pretreated with d-tubocurarine (1 mg/kg i.v.) and with indomethacin (10 mg/kg i.v.). When injected at a dose of 2 μg/kg i.v., U46619 causes a bronchoconstriction which leads to an increase in tracheal pressure and induces an increase in arterial blood pressure. The responses to U46619 are reversible and reproducible if the injections are carried out every 10 minutes.
The thromboxane receptor antagonists are injected 5 minutes before the injections of U46619. The dose of antagonist that inhibits by 50% the increase in tracheal pressure caused by U46619 is determined (IC50).

[2] = tested on: Dog platelets (aggregation induced by U46619+adrenaline); test: Platelet aggregation in dogs (U46619 + adrenaline, PRP); assay type: cell-based; details: Canis lupus familiaris, adrenaline 10 μM then U46619 1.2 μM, 3 min preincubation, 37° C., read-out: IC50 (50% inhibition of the aggregation responses to U46619+adrenaline)
Protocol: Platelet Aggregation in Dogs
After anesthesia of the animal with pentobarbital sodium (30 mg/kg i.v.), arterial blood is withdrawn onto sodium citrate (0.109M) (1 vol. of citrate per 9 vol. of blood). Platelet-rich plasma (PRP) is obtained after centrifugation (20° C.) at 200 g for 10 minutes. The number of platelets in the PRP is 300,000 PL/mm^3 on average. The PRP is stored at the temperature of the room until the time of the test, and is used within 4 hours following withdrawal from the animal.
Dog platelets respond weakly to U46619 alone. […] The PRP is incubated at 37° C. in the presence of the test antagonist for 3 minutes. Aggregation is then obtained by the addition of adrenaline (10 μM) followed by that of U46619 (1.2 μM) 30 seconds later. The effect of the antagonists is measured, and the IC50 is determined as the concentration of the antagonist needed to produce a 50% inhibition of the aggregation responses to U46619+adrenaline.

[3] = target: T1, guinea pig trachea (contractions caused by U46619) (Cavia porcellus, UniProt A0A286Y4I8); test: pA2 on guinea pig trachea (U46619-induced contraction); assay type: cell-based; details: guinea pig tracheal rings; U46619 10^-9 M to 10^-5 M; antagonist contact 20 minutes
T1 sequence (A0A286Y4I8 1-347): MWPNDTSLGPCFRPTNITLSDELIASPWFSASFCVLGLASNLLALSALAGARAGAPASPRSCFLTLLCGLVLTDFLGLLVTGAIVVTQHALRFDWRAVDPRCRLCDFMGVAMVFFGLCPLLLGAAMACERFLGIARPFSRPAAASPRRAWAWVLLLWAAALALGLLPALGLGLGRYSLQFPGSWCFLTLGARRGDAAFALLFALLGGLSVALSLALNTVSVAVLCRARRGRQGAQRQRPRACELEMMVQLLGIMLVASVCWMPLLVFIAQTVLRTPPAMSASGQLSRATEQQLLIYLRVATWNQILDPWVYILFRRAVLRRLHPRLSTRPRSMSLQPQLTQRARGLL

[4] = tested on: platelets (aggregation induced by U46619, a TXA2 receptor agonist); test: Platelet aggregation in rabbits (U46619-induced, PRP); assay type: cell-based; details: Oryctolagus cuniculus, 0.05 h, rabbit PRP, U46619 1.2 μM, antagonist 3 min before agonist, 37° C., read-out: IC50 (50% inhibition of the aggregation response induced by U46619)
Protocol: Platelet Aggregation in Rabbits
Rabbits (2-3 kg) are anesthetized with pentobarbital sodium (30 mg/kg i.v.). After cannulation of the left carotid artery, blood is withdrawn onto sodium citrate (0.109M) (1 vol. of citrate per 9 vol. of blood). Platelet-rich plasma (PRP) is obtained by centrifugation (20° C.) at 250 g for 20 minutes, and platelet-poor plasma (PPP) by centrifugation at 1000 g (10 min). The number of platelets (PL) in the PRP is adjusted to 300-350,000 PL/mm^3 by dilution with autologous PPP. The PRP is stored at the temperature of the room until the time of the test, and is used within 4 hours following withdrawal from the animal.
Platelet aggregation is carried out at 37° C. in siliconed glass tubes using an aggregometer. The PRP and the PL are stirred at 1000 rpm (revolutions per minute). In order to study the activity of thromboxane antagonists, the PRP is incubated for 1 min at 37° C., and the antagonist is then added for a period of 3 min before addition of the agonist U46619 (1.2 μM). The final volume in the measuring cell is then 250 μl. The intensity of platelet aggregation is established by taking the maximum amplitude of aggregation plots and is expressed as a percentage light transmission (% T). […]

[5] = tested on: platelets (aggregation induced by U46619); test: Platelet aggregation in man (U46619-induced, PRP); assay type: cell-based; details: human PRP, procedure of Example 22 (U46619 1.2 μM), read-out: IC50 (50% inhibition of platelet aggregation induced by U46619)
Protocol: Platelet aggregation is carried out at 37° C. in siliconed glass tubes using an aggregometer. The PRP and the PL are stirred at 1000 rpm (revolutions per minute). In order to study the activity of thromboxane antagonists, the PRP is incubated for 1 min at 37° C., and the antagonist is then added for a period of 3 min before addition of the agonist U46619 (1.2 μM). The final volume in the measuring cell is then 250 μl. The intensity of platelet aggregation is established by taking the maximum amplitude of aggregation plots and is expressed as a percentage light transmission (% T). The activity of the antagonists is expressed as IC50, that is to say the concentration of the substance which induces a 50% inhibition of the aggregation response induced by U46619.
Platelet Aggregation in Man
Venous blood is obtained from human volunteers who have not taken aspirin for at least 14 days prior to the experiment. The blood is withdrawn onto sodium citrate (0.109M) (1 vol. of citrate to 9 vol. of blood). Platelet-rich plasma (PRP) is obtained after centrifugation (20° C.) at 200 g for 10 minutes. The number of platelets is 250,000 PL/mm^3 on average. The PRP is stored at the temperature of the room until the time of the test, and is used within 2 hours following withdrawal from the subject. The antagonists are tested according to the procedure described in Example 22.

| SMILES | ED50 [1] [mg/kg] | IC50 [2] [nM] | Kb [3] [nM] | IC50 [4] [nM] | IC50 [5] [nM] |
| --- | --- | --- | --- | --- | --- |
| O=C(O)CCC/C=C\CC1(CCNS(=O)(=O)c2ccc(Cl)cc2)CCCCC1 [Example 1, (5Z)-10-[(4-Chlorophenyl)sulfonamido]-8,8-pentamethylene-5-decenoic acid sodium salt] | 0.027 | 140 | 0.398 |  |  |
| O=C(O)CC/C=C\CC1(CCNS(=O)(=O)c2ccc(Cl)cc2)CCCCC1 [Example 2, (4Z ) -9-[(4-Chlorophenyl)sulfonamido]-7 , 7-pentamethylene-4-nonenoic acid sodium salt] | 0.12 | 120 | 3.98 | 200 | 200 |
| O=C(O)CC/C=C\CC1(CCNS(=O)(=O)c2ccc(Cl)cc2)CCCC1 [Example 3, (4Z)-9-[(4-Chlorophenyl)sulfonamido]-7,7-tetramethylene-4-nonenoic acid sodium salt] | 0.019 | 60 | 0.501 |  | 80 |
| Cc1ccc(S(=O)(=O)NCCC2(C/C=C\CCCC(=O)O)CCCCC2)cc1 [Example 4, (5Z)-10-[(4-Methylphenyl)sulfonamido]-8,8-pentamethylene-5-decenoic acid sodium salt] | 0.105 | 200 | 3.16 |  |  |
| O=C(O)CCC/C=C\CC1(CCNS(=O)(=O)c2ccc(Br)cc2)CCCCC1 [Example 5, (5Z)-10-[(4-Bromophenyl)sulfonamido]-8,8-pentamethylene-5-decenoic acid sodium salt] | 0.066 | 140 | 6.31 |  |  |
| O=C(O)CC/C=C\CC1(CNS(=O)(=O)c2ccc(Cl)cc2)CCCC1 [Example 6, (4Z) -8-[(4-Chlorophenyl)sulfonamido]-7,7-tetramethylene-4-octenoic acid sodium salt] | 0.021 |  | 0.724 | 200 | 80 |
| O=C(O)CC/C=C\CC1(CNS(=O)(=O)c2ccc(Cl)cc2)CCCCC1 [Example 7, (4Z)-8-[(4-Chlorophenyl)sulfonamido]-7,7-pentamethylene-4-octenoic acid sodium salt] | 0.02 |  | 0.398 |  | 300 |
| O=C(O)CCC/C=C\CC1(CNS(=O)(=O)c2ccc(Cl)cc2)CCCC1 [Example 8, (5Z )-9-[(4-Chlorophenyl)sulfonamido]-8,8-tetramethylene-5-nonenoic acid sodium salt] | 0.007 |  | 0.234 |  | 300 |
| O=C(O)CC/C=C\CCC1(CNS(=O)(=O)c2ccc(Cl)cc2)CCCC1 [Example 9, (4Z)-9-[(4-Chlorophenyl)sulfonamido]-8,8-tetramethylene-4-nonenoic acid sodium salt] | 0.011 |  | 0.832 |  | 200 |
| O=C(O)CC/C=C\CCC1(NS(=O)(=O)c2ccc(Cl)cc2)CCCC1 [Example 10, (4Z)-8-[(4-Chlorophenyl)sulfonamido]-8,8-tetramethylene-4-octenoic acid sodium salt] |  |  | 22.4 |  |  |
| O=C(O)CCC/C=C\CCC1(NS(=O)(=O)c2ccc(Cl)cc2)CCCC1 [Example 11, (5Z)-9-[(4-Chlorophenyl)sulfonamido]-9,9-tetramethylene-5-nonenoic acid sodium salt] |  |  | 20 |  |  |
| O=C(O)CCC/C=C\CC1(CCNS(=O)(=O)c2ccc(Cl)cc2)CCCC1 [Example 12, (5Z)-10-[(4-Chlorophenyl)sulfonamido]-8,8-tetramethylene-5-decenoic acid sodium salt] | 0.009 | 150 | 1.05 |  | 500 |
| O=C(O)CC/C=C\CCC1(CCNS(=O)(=O)c2ccc(Cl)cc2)CCCC1 [Example 14, (4Z )-10-[(4-Chlorophenyl)sulfonamido]-8,8-tetramethylene-4-decenoic acid sodium salt] |  |  |  |  | 800 |
| O=C(O)CC/C=C\CC1(CCNS(=O)(=O)c2ccc(Cl)cc2)CCc2ccccc21 (stereo not drawn) [sodium salt] |  |  | 3.98 |  |  |
